Results: patent US9028856B2, “Synergistic pesticide compositions” (priority 2008, dated 2015)
Where two headings read alike, the source gives them in different places.

Tests used:
[1] = system: Red Imported Fire ant (RIFA), Solenopsis invicta; test: Knockdown/mortality of ant workers under continuous exposure on treated glazed tile; format: in vivo; conditions: ethiprole 0.01% in the absence of the adjuvant (FIG. 54)
Excerpt: Treatments were allowed to dry overnight. […] Treatments were replicated minimum three times.
Treatments were allowed to dry overnight. […] Treatments were replicated a minimum of three times.

[2] = system: Odorous House ant, Tapinoma sessile; test: as above; format: in vivo; conditions: ethiprole 0.01% in the absence of the adjuvant (FIG. 53)
How it was run: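 Treatments applied to about 161 cm2 glazed tile and dried overnight, with at least three replicates.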

[3] = system: Musca domestica, susceptible strain WHO(N); test: Efficacy of formulations on surfaces (glazed/unglazed tiles), house flies, continuous exposure; format: in vivo; conditions: Table 114; 0.02% = 10 mg Ethiprole/m^2 on glazed tiles; EC formulation; continuous exposure
[4] = system: Musca domestica, resistant strain Reichswald; test: as above; format: in vivo; conditions: Table 115; 0.02% = 10 mg Ethiprole/m^2 on glazed tiles; EC formulation; continuous exposure
[5] = format: physicochemical; conditions: classified from Log P
[6] = system: Cimex lectularius (adults); test: Efficacy on glazed tiles (acetone solutions or EC formulations), continuous exposure; format: in vivo; conditions: Cimex lectularius, on tiles, insecticide alone (imidacloprid 50 mg/m^2, Bendiocarb 50 mg/m^2, Ethiprole 10 mg/m^2, DTM 1 mg/m^2), no Compound A, read-out: % KD and Mortality
Protocol: Test Insects: Culex quinquefasciatus (adults) (3 minutes exposure time according to USDA Petri Dish Method), Musca domestica (adults), susceptible and resistant strain, Blattella germanica (males), Cimex lectularius (adults) (all: continuous exposure time)
Application: The EC formulation (diluted with water 1:9) were applied as 0.85 ml solutions onto glazed tiles (15 cm×15 cm)
Evaluation: Knock down after 15, and 30 minutes, 1, 2, 3, 4, 6 and 24 hours (mortality)
Test Insects: Culex quinquefasciatus (adults) (3 minutes exposure time according to USDA Petri Dish Method), Cimex lectularius (adults), Acheta domesticus (middle nymphs) (both: continuous exposure time)
Application: The active ingredients were applied as 1 ml acetone solutions onto glazed tiles (15 cm×15 cm)
Evaluation: Knock down after 3, 9 (mosquitoes only), 15, and 30 minutes, 1, 2, 3, 4 and 24 hours (mortality)
Test Insects: Culex quinquefasciatus (adults) (3 minutes exposure time according to USDA Petri Dish Method), Cimex lectularius (adults), (continuous exposure time)
Test Insects: Cimex lectularius, Culex quinquefasciatus, Musca domestica (all adults, susceptible strains)
Application: The active ingredients were applied as 1 ml acetone solutions onto glazed tiles (15 cm×15 cm), continuous exposure time

## CC[S+]([O-])c1c(C#N)nn(-c2c(Cl)cc(C(F)(F)F)cc2Cl)c1N (centres unmarked) [ethiprole]
[1]
  mortality in 3 hours: < 5%
[2]
  mortality in 2 hours: around 4%
[3]
  % KD and Mortality 15′: 0%
  % KD and Mortality 30′: 0%
  % KD and Mortality 1 h: 0%
  % KD and Mortality 2 h: 5%
  % KD and Mortality 3 h: 15%
  % KD and Mortality 4 h: 15%
  % KD and Mortality 6 h: 25%
  % KD and Mortality 24 h: 95%
[4]
  % KD and Mortality 15′: 0%
  % KD and Mortality 30′: 0%
  % KD and Mortality 1 h: 0%
  % KD and Mortality 2 h: 0%
  % KD and Mortality 3 h: 0%
  % KD and Mortality 4 h: 10%
  % KD and Mortality 6 h: 15%
  % KD and Mortality 24 h: 60%
[5]
  Likelihood of Direct Insect Cuticular Penetration: Fast (classified as “FAST” when it has a Log P value of about >4.0)
[6]; 15′
  mortality at 10 mg/m2: 0%
[6]; 1 h
  mortality at 10 mg/m2: 0%
[6]; 2 h
  mortality at 10 mg/m2: 10%
[6]; 3 h
  mortality at 10 mg/m2: 10%
[6]; 4 h
  mortality at 10 mg/m2: 10%
[6]; 6 h
  mortality at 10 mg/m2: 70%
[6]; 24 h
  mortality at 10 mg/m2: 100%
